According to ChEMBL document CHEMBL4699665, “Discovery of ANT3310, a Novel Broad-Spectrum Serine β-Lactamase Inhibitor of the Diazabicyclooctane Class, Which Strongly Potentiates Meropenem Activity against Carbapenem-Resistant Enterobacterales and Acinetobacter baumannii” (J Med Chem, 2020):
Converted amounts (≈) assume the structure as drawn.

Tests used:
[1] = Inhibition of beta lactamase KPC-2 in Enterobacter cloacae assessed as decrease in enzyme activity using nitrocefin as substrate preincubated for 10 mins followed by substrate addition measured for 10 mins by fluorescence plate reader analysis
Acinetobacter baumannii [2] = test: Potentiation of meropenem-induced antibacterial activity against Acinetobacter baumannii expressing OXA-23 assessed as meropenem MIC at 4 ug/ml by broth microdilution method (reference value: 32 ug/ml); type: functional; details: dose 4 µg/ml
[3] = Inhibition of beta lactamase CTXM-15 in Enterobacter cloacae assessed as decrease in enzyme activity using nitrocefin as substrate preincubated for 10 mins followed by substrate addition measured for 10 mins by fluorescence plate reader analysis
Klebsiella pneumoniae [4] = test: Potentiation of meropenem-induced antibacterial activity against Klebsiella pneumoniae expressing TEM-1/SHV-11/KPC-3 assessed as meropenem MIC at 4 ug/ml by broth microdilution method (reference value: 128 ug/ml); type: functional; details: dose 4 µg/ml
[5] = Inhibition of beta lactamase AmpC in Enterobacter cloacae assessed as decrease in enzyme activity using nitrocefin as substrate preincubated for 10 mins followed by substrate addition measured for 10 mins by fluorescence plate reader analysis
Klebsiella pneumoniae [6] = test: Potentiation of meropenem-induced antibacterial activity against Klebsiella pneumoniae expressing SHV-11/OXA-121 assessed as meropenem MIC at 4 ug/ml by broth microdilution method (reference value: 16 ug/ml); type: functional; details: dose 4 µg/ml
[7] = Inhibition of beta lactamase OXA-48 in Enterobacter cloacae assessed as decrease in enzyme activity using nitrocefin as substrate preincubated for 10 mins followed by substrate addition measured for 10 mins by fluorescence plate reader analysis
[8] = Inhibition of bacteria beta lactamase OXA-23 assessed as decrease in enzyme activity using nitrocefin as substrate preincubated for 10 mins followed by substrate addition measured for 10 mins by fluorescence plate reader analysis
Klebsiella pneumoniae [9] = test: Potentiation of meropenem-induced antibacterial activity against Klebsiella pneumoniae expressing TEM-OSBL/CTX-M-14/OXA-48 assessed as meropenem MIC at 4 ug/ml by broth microdilution method (reference value: 16 ug/ml); type: functional; details: dose 4 µg/ml
Enterobacter cloacae [10] = test: Potentiation of meropenem-induced antibacterial activity against Enterobacter cloacae expressing TEM-1/KPC-2 assessed as meropenem MIC at 4 ug/ml by broth microdilution method (reference value: 8 ug/ml); type: functional; details: dose 4 µg/ml
[11] = Inhibition of beta lactamase TEM-1 in Enterobacter cloacae assessed as decrease in enzyme activity using nitrocefin as substrate preincubated for 10 mins followed by substrate addition measured for 10 mins by fluorescence plate reader analysis
Acinetobacter baumannii [12] = test: Antibacterial activity against Acinetobacter baumannii expressing OXA-23 by broth microdilution method; type: functional
Enterobacter cloacae [13] = test: Antibacterial activity against Enterobacter cloacae expressing TEM-1/KPC-2 by broth microdilution method; type: functional
Klebsiella pneumoniae [14] = test: Antibacterial activity against Klebsiella pneumoniae expressing TEM-OSBL/CTX-M-14/OXA-48 by broth microdilution method; type: functional
Klebsiella pneumoniae [15] = test: Antibacterial activity against Klebsiella pneumoniae expressing TEM-1/SHV-11/KPC-3 by broth microdilution method; type: functional
Klebsiella pneumoniae [16] = test: Antibacterial activity against Klebsiella pneumoniae expressing SHV-11/OXA-181 by broth microdilution method; type: functional
Enterobacter [17] = test: Inhibition of beta lactamase KPC in carbapenem-resistant Enterobacter assessed as meropenem-induced antibacterial activity by measuring meropenem MIC50 at 4 ug/ml by broth microdilution method (Rvb >32 ug/ml); details: dose 4.0 µg/ml
Acinetobacter baumannii [18] = test: Inhibition of beta lactamase OXA in carbapenem-resistant Acinetobacter baumannii assessed as meropenem minimum concentration required for antibacterial activity at 4 ug/ml by broth microdilution method (reference value: 8 ug/ml); details: dose 4.0 µg/ml
Enterobacter [19] = test: Inhibition of beta lactamase KPC in carbapenem-resistant Enterobacter assessed as meropenem-induced antibacterial activity by measuring meropenem MIC90 at 4 ug/ml by broth microdilution method (Rvb >32 ug/ml); details: dose 4.0 µg/ml
Enterobacter [20] = test: Inhibition of beta lactamase OXA in carbapenem-resistant Enterobacter assessed as meropenem maximum concentration required for antibacterial activity at 4 ug/ml by broth microdilution method (Rvb > 32 ug/ml); details: dose 4.0 µg/ml
Acinetobacter baumannii [21] = test: Inhibition of beta lactamase OXA in carbapenem-resistant Acinetobacter baumannii assessed as meropenem-induced antibacterial activity by measuring meropenem MIC90 at 4 ug/ml by broth microdilution method (Rvb > 32 ug/ml); details: dose 4.0 µg/ml
Enterobacter [22] = test: Inhibition of beta lactamase OXA in carbapenem-resistant Enterobacter assessed as meropenem-induced antibacterial activity by measuring meropenem MIC 90 at 4 ug/ml by broth microdilution method (Rvb >32 ug/ml); details: dose 4.0 µg/ml
Enterobacter [23] = test: Inhibition of beta lactamase KPC in carbapenem-resistant Enterobacter assessed as meropenem maximum concentration required for antibacterial activity at 4 ug/ml by broth microdilution method (Rvb >32 ug/ml); details: dose 4.0 µg/ml
Acinetobacter baumannii [24] = test: Inhibition of beta lactamase OXA in carbapenem-resistant Acinetobacter baumannii assessed as meropenem-induced antibacterial activity by measuring meropenem MIC50 at 4 ug/ml by broth microdilution method (Rvb > 32 ug/ml); details: dose 4.0 µg/ml
Acinetobacter baumannii [25] = test: Inhibition of beta lactamase OXA in carbapenem-resistant Acinetobacter baumannii assessed as meropenem maximum concentration required for antibacterial activity at 4 ug/ml by broth microdilution method (Rvb > 32 ug/ml); details: dose 4.0 µg/ml
Enterobacter [26] = test: Inhibition of beta lactamase KPC in carbapenem-resistant Enterobacter assessed as meropenem minimum concentration required for antibacterial activity at 4 ug/ml by broth microdilution method (reference value: 4 ug/ml); details: dose 4.0 µg/ml
Enterobacter [27] = test: Inhibition of beta lactamase OXA in carbapenem-resistant Enterobacter assessed as meropenem minimum concentration required for antibacterial activity at 4 ug/ml by broth microdilution method (reference value: 2 ug/ml); details: dose 4.0 µg/ml
Enterobacter [28] = test: Inhibition of beta lactamase OXA in carbapenem-resistant Enterobacter assessed as meropenem-induced antibacterial activity by measuring meropenem MIC50 at 4 ug/ml by broth microdilution method (reference value: 16 ug/ml); details: dose 4.0 µg/ml
[29] = AUC in rat at 1 mg/kg, iv; type: ADME, organism-based; parameters: dose 1 mg/kg; details: in vivo
[30] = Half life in rat at 1 mg/kg, iv; type: ADME, organism-based; details: in vivo
[31] = Volume of distribution in rat at 1 mg/kg, iv; type: ADME, organism-based; details: in vivo
[32] = Clearance in rat at 1 mg/kg, iv; type: ADME, organism-based; details: in vivo

SMILES	IC50 [1] [nM]	MIC (Acinetobacter baumannii [2]) [µg/mL]	IC50 [3] [nM]	MIC (Klebsiella pneumoniae [4]) [µg/mL]	IC50 [5] [nM]	MIC (Klebsiella pneumoniae [6]) [µg/mL]	IC50 [7] [nM]	IC50 [8] [nM]	MIC (Klebsiella pneumoniae [9]) [µg/mL]	MIC (Enterobacter cloacae [10]) [µg/mL]	IC50 [11] [nM]	also measured
O=C1N2CCC[C@H](C2)N1OS(=O)(=O)[O-].[Na+]	> 3000	32	1200	64	> 3000	8	1340	> 3000	4	2	511	–
O=C1N2C[C@@H](CC[C@H]2C(F)(F)c2nccs2)N1OS(=O)(=O)[O-].[Na+]	3	32	19	8	1	16	1110	> 3000	16	0.125	216	–
O=C(NNC(=O)[C@@H]1CC[C@@H]2CN1C(=O)N2OS(=O)(=O)O)[C@@H]1CCCNC1 [ZIDEBACTAM]	–	–	–	–	–	–	–	–	–	–	–	MIC (Acinetobacter baumannii [12]): > 128 µg/mL; MIC (Enterobacter cloacae [13]): 0.5 µg/mL (≈ 1.28 µM); MIC (Klebsiella pneumoniae [14]): 0.25 µg/mL (≈ 0.639 µM); MIC (Klebsiella pneumoniae [15]): 2 µg/mL (≈ 5.11 µM); MIC (Klebsiella pneumoniae [16]): 2 µg/mL (≈ 5.11 µM)
O=C1N2C[C@@H](CC[C@H]2C(Cl)Cl)N1OS(=O)(=O)[O-].[Na+]	4	32	178	2	52	16	178	1680	16	0.06	403	–
O=C1N2C[C@@H](CC[C@H]2C(F)F)N1OS(=O)(=O)[O-].[Na+]	7	16	17	1	35	1	64	1600	2	0.06	208	–
N#C[C@@H]1CC[C@@H]2CN1C(=O)N2OS(=O)(=O)[O-].[Na+]	8	4	4	0.5	3	0.25	2	59	0.06	0.06	67	MIC50 (Enterobacter [17]): 0.06 µg/mL; MIC (Acinetobacter baumannii [18]): 0.25 µg/mL; MIC90 (Enterobacter [19]): 1 µg/mL; Activity (Enterobacter [20]): 0.5 µg/mL; MIC90 (Acinetobacter baumannii [21]): 32 µg/mL; MIC90 (Enterobacter [22]): 0.25 µg/mL; Activity (Enterobacter [23]): 16 µg/mL; MIC50 (Acinetobacter baumannii [24]): 16 µg/mL; Activity (Acinetobacter baumannii [25]): > 32 µg/mL; MIC (Enterobacter [26]): < 0.03 µg/mL; MIC (Enterobacter [27]): < 0.03 µg/mL; MIC50 (Enterobacter [28]): 0.12 µg/mL
O=C1N2C[C@@H](CC[C@H]2Cl)N1OS(=O)(=O)[O-].[Na+]	31	32	8	64	4	4	269	–	4	0.06	1	–
NC(=O)[C@@H]1CC[C@@H]2CN1C(=O)N2OS(=O)(=O)O [AVIBACTAM]	8	16	1	0.25	8	1	252	> 3000	0.5	0.03	5	MIC (Acinetobacter baumannii [12]): > 128 µg/mL; MIC (Enterobacter cloacae [13]): 16 µg/mL (≈ 60.3 µM); MIC (Klebsiella pneumoniae [14]): 16 µg/mL (≈ 60.3 µM); AUC [29]: 279 ng·h/mL; MIC (Klebsiella pneumoniae [15]): 16 µg/mL (≈ 60.3 µM); half-life [30]: 22.2 min; Vd [31]: 1.9 L/kg; clearance [32]: 59 mL/min/kg; MIC (Klebsiella pneumoniae [16]): 32 µg/mL (≈ 121 µM)

Continued, in another order:

IC50 [1] [nM]	MIC (Acinetobacter baumannii [2]) [µg/mL]	IC50 [3] [nM]	MIC (Klebsiella pneumoniae [4]) [µg/mL]	IC50 [5] [nM]	MIC (Klebsiella pneumoniae [6]) [µg/mL]	IC50 [7] [nM]	IC50 [8] [nM]	MIC (Klebsiella pneumoniae [9]) [µg/mL]	MIC (Enterobacter cloacae [10]) [µg/mL]	IC50 [11] [nM]	SMILES	also measured
28	32	84	2	26	16	443	> 3000	8	0.06	135	O=C1N2C[C@@H](CC[C@H]2CCl)N1OS(=O)(=O)[O-].[Na+]	–
15	32	2	8	< 1	16	15	–	8	0.06	1	O=C1N2C[C@@H](CC[C@H]2S(=O)(=O)C(F)(F)F)N1OS(=O)(=O)[O-].[Na+]	–
6	16	10	2	4	2	19	810	2	0.06	810	O=C1N2C[C@@H](CC[C@H]2C(F)(F)F)N1OS(=O)(=O)[O-].[Na+]	–
13	32	11	32	23	16	15	> 3000	8	0.25	117	O=C1N2C[C@@H](CC[C@H]2COC(F)(F)F)N1OS(=O)(=O)[O-].[Na+]	–
43	32	200	2	313	16	169	> 3000	8	0.06	267	CC(F)(F)[C@@H]1CC[C@@H]2CN1C(=O)N2OS(=O)(=O)[O-].[Na+]	–
2	32	10	4	2	8	99	1320	8	0.03	26	O=C1N2C[C@@H](CC[C@H]2SC(F)(F)F)N1OS(=O)(=O)[O-].[Na+]	–
51	32	119	2	304	1	154	> 3000	1	0.125	492	O=C1N2C[C@@H](CC[C@H]2CF)N1OS(=O)(=O)[O-].[Na+]	–
